Test results taken from US9216973B2, “Insecticidal compounds” (Syngenta Participations AG, priority 2008, dated 2015).

Test system: Spodoptera littoralis (Egyptian cotton leafworm)
Test: Spodoptera littoralis cotton leaf disc spray test
Assay type: in vivo
Settings: for effect on mortality, feeding behavior, or growth regulation: same protocol, 200 ppm; for pest or weed control at 200 ppm: foliar, 72 h, 200 ppm spray on cotton leaf discs, L1 larvae, mortality, feeding behavior, growth regulation 3 days after treatment
Description: This Example illustrates the insecticidal and acaricidal properties of compounds of formula (I). The tests were performed as follows:
Spodoptera littoralis (Egyptian cotton leafworm):
Cotton leaf discs were placed on agar in a 24-well microtiter plate and sprayed with test solutions at an application rate of 200 ppm. After drying, the leaf discs were infested with 5 L1 larvae. The samples were checked for mortality, feeding behavior, and growth regulation 3 days after treatment (DAT). The following compound gave at least 80% control of Spodoptera littoralis: A1, A2, A5, A6, A7, A8, A10, A11, A12, A13, A14, A15, A16, A17, A18, A19, A21, A22, A23, A24, A25, A30, A31, A32, A33, A34, A35, A39, A40, A41 A42, A43, A44, A45, A46, A47, A48, A49, A50, A51, A53, A54, A55, A59, A60, A61, A62. Heliothis virescens (Tobacco budworm): Eggs (0-24 h old) were placed in 24-well microtiter plate on artificial diet and treated with test solutions at an application rate of 200 ppm (concentration in well 18 ppm) by pipetting. After an incubation period of 4 days, samples were checked for egg mortality, larval mortality, and growth regulation. The following compound gave at least 80% control of Heliothis virescens: A1, A2, A3, A4, A5, A6, A7, A8, A10, A11, A12, A13, A14, A15, A16, A18, A19, A21, A22, A24, A25, A30, A31, A32, A33, A34, A35, A37, A38, A39, A40, A42, A43, A44, A45, A46, A47, A48, A49, A50, A51, A55, AA57, A58, A59, A60, A61, A62. Plutella xylostella (Diamond back moth): 24-well microtiter plate (MTP) with artificial diet was treated with test solutions at an application rate of 200 ppm (concentration in well 18 ppm) by pipetting. After drying, the MTP's were infested with L2 larvae (7-12 per well). After an incubation period of 6 days, samples were checked for larval mortality and growth regulation. The following compound gave at least 80% control of Plutella xylostella: A1, A2, A5, A6, A7, A8, A9, A10, A11, A12, A13, A14, A15, A16, A17, A18, A19, A20, A21, A22, A24, A25, A30, A31, A32, A33, A34, A35, A37, A38, A39, A40, A42, A43, A44, A45, A46, A47, A48, A49, A50, A51, A52, A53, A54, A55, A57, A58, A59, A60, A61, A62, B3. Diabrotica balteata (Corn root worm): A 24-well microtiter plate (MTP) with artificial diet was treated with test solutions at an application rate of 200 ppm (concentration in well 18 ppm) by pipetting. After drying, the MTP's were infested with L2 larvae (6-10 per well). After an incubation period of 5 days, samples were checked for larval mortality and growth regulation. The following compound gave at least 80% control of Diabrotica balteata: A1, A2, A5, A6, A7, A10, A11, A12, A13, A14, A15, A16, A17, A18, A19, A21, A22, A24, A25, A30, A31, A32, A33, A34, A35, A38, A39, A40, A42, A43, A44, A45, A46, A47, A48, A49, A50, A59, A60, A61, A62. Thrips tabaci (Onion thrips): Sunflower leaf discs were placed on agar in a 24-well microtiter plate and sprayed with test solutions at an application rate of 200 ppm. After drying, the leaf discs were infested with an […] population of mixed ages. After an incubation period of 7 days, samples were checked for mortality. The following compounds gave at least 80% control of Thrips tabaci: A1, A2, A5, A6, A7, A8, A10, A12, A13, A14, A15, A16, A17, A18, A19, A21, A24, A25, A30, A31, A32, A33, A34, A35, A39, A42, A43, A44, A45, A46, A47, A48, A49, A50, A51, A53, A54, A57, A58, A59, A60, A61, A62. Tetranychus urticae (Two-spotted spider mite): Bean leaf discs on agar in 24-well microtiter plates were sprayed with test solutions at an application rate of 200 ppm. After drying, the leaf discs are infested with mite populations of mixed ages. 8 days later, discs are checked for egg mortality, larval mortality, and adult mortality. […]

| SMILES | effect on mortality, feeding behavior, or growth regulation | pest or weed control at 200 ppm |
| --- | --- | --- |
| Cc1nc2c(C3=NOC(c4cc(Cl)cc(Cl)c4)(C(F)(F)F)C3)ccc(C(=O)NC3(C)CSC3)c2o1 (centres unmarked) [A27] | little or no effect | – |
| Cc1cc(C2=NOC(c3cc(Cl)cc(Cl)c3)(C(F)(F)F)/C2=N/O)ccc1C(=O)NC1CS(=O)(=O)C1 (centres unmarked) [A55] | – | ≥ 80% |
| O=C(NC1C[S+]([O-])C1)c1ccc(C2=NOC(c3cc(Cl)cc(Cl)c3)(C(F)(F)F)C2Br)c2ccccc12 (centres unmarked) [A44] | – | ≥ 80% |
| Cc1cc(C2CC(c3cc(Cl)cc(Cl)c3)(C(F)(F)F)ON2C)ccc1C(=O)NC1C[S+]([O-])C1 (centres unmarked) [A18] | – | ≥ 80% |
| Cc1cc(C2=NCC(c3cc(Cl)cc(Cl)c3)(C(F)(F)F)C2)ccc1C(=O)NC1CSC1 (centres unmarked) [A49] | – | ≥ 80% |
| CC1(NC(=O)c2ccc(C3=NOC(c4cc(Cl)cc(Cl)c4)(C(F)(F)F)C3)c3ccccc23)CSC1 (centres unmarked) [A1] | – | ≥ 80% |
| Cc1cc(C2=NN(C)C(c3cc(Cl)cc(Cl)c3)(C(F)(F)F)C2)ccc1C(=O)NC1CSC1 (centres unmarked) [A14] | – | ≥ 80% |
| Cc1cc(C2CC(c3cc(Cl)cc(Cl)c3)(C(F)(F)F)ON2C)ccc1C(=O)NC1CS(=O)(=O)C1 (centres unmarked) [A19] | – | ≥ 80% |
| Cc1cc(C2=NOC(c3cc(Cl)cc(Cl)c3)(C(F)(F)F)C2Br)ccc1C(=O)NC1C[S+]([O-])C1 (centres unmarked) [A7] | – | ≥ 80% |
| Cc1cc(C2=NOC(c3cc(Cl)cc(Cl)c3)(C(F)(F)F)C2Br)ccc1C(=O)NC1(C)CSC1 (centres unmarked) [A5] | – | ≥ 80% |
| O=C(NC1CS(=O)(=O)C1)c1ccc(C2=NOC(c3cc(Cl)cc(Cl)c3)(C(F)(F)F)C2)c2ccccc12 (centres unmarked) [A15] | – | ≥ 80% |
| O=C(NC1CS(=O)(=O)C1)c1ccc(C2=NOC(c3cc(Cl)cc(Cl)c3)(C(F)(F)F)C2Br)c2ccccc12 (centres unmarked) [A42] | – | ≥ 80% |
| Cc1cc(N2CC(c3cc(Cl)cc(Cl)c3)(C(F)(F)F)OC2=O)ccc1C(=O)NC1CSC1 (centres unmarked) [A11] | – | ≥ 80% |
| Cc1cc(C2=NOC(c3cc(Cl)cc(Cl)c3)(C(F)(F)F)C2O)ccc1C(=O)NC1C[S+]([O-])C1 (centres unmarked) [A53] | – | ≥ 80% |
| O=C(NC1CS(=O)(=O)C1)c1ccc(C2=NOC(c3cc(Cl)cc(Cl)c3)(C(F)(F)F)C2)c2nsnc12 (centres unmarked) [A22] | – | ≥ 80% |
| Cc1cc(C2=NOC(c3cc(Cl)cc(Cl)c3)(C(F)(F)F)/C2=N/O)ccc1C(=O)NC1(C)CSC1 (centres unmarked) [A56] | little or no effect | – |
| Cc1cc(C2=NOC(c3cc(Cl)cc(Cl)c3)(C(F)(F)F)C2F)ccc1C(=O)NC1CSC1 (centres unmarked) [A61] | – | ≥ 80% |
| Cc1cc(C2=NOC(c3cc(Cl)cc(Cl)c3)(C(F)(F)F)C2O)ccc1C(=O)NC1CS(=O)(=O)C1 (centres unmarked) [A51] | – | ≥ 80% |
| O=C(NC1C[S+]([O-])C1)c1ccc(C2=NOC(c3cc(Cl)cc(Cl)c3)(C(F)(F)F)C2)c2ccccc12 (centres unmarked) [A16] | – | ≥ 80% |
| Cc1nc2c(C3=NOC(c4cc(Cl)cc(Cl)c4)(C(F)(F)F)C3)ccc(C(=O)NC3CSC3)c2o1 (centres unmarked) [A29] | little or no effect | – |
| Cc1cc(C2=NCC(c3cc(Cl)cc(Cl)c3)(C(F)(F)F)C2)ccc1C(=O)NC1CS(=O)(=O)C1 (centres unmarked) [A46] | – | ≥ 80% |

| SMILES | effect on mortality, feeding behavior, or growth regulation | pest or weed control at 200 ppm |
| --- | --- | --- |
| Cc1cc(C2=NOC(c3cc(Cl)cc(Cl)c3)(C(F)(F)F)C2Cl)ccc1C(=O)NC1C[S+]([O-])C1 (centres unmarked) [A34] | – | ≥ 80% |
| Cc1cc(N2CC(c3cc(Cl)cc(Cl)c3)(C(F)(F)F)OC2=O)ccc1C(=O)NC1C[S+]([O-])C1 (centres unmarked) [A10] | – | ≥ 80% |
| Cc1nc2c(C3=NOC(c4cc(Cl)cc(Cl)c4)(C(F)(F)F)C3)ccc(C(=O)NC3CS(=O)(=O)C3)c2o1 (centres unmarked) [A26] | little or no effect | – |
| Cc1nc2c(C3=NOC(c4cc(Cl)cc(Cl)c4)(C(F)(F)F)C3)ccc(C(=O)NC3C[S+]([O-])C3)c2o1 (centres unmarked) [A28] | little or no effect | – |
| Cc1cc(C2=NCC(c3cc(Cl)cc(Cl)c3)(C(F)(F)F)C2)ccc1C(=O)NC1(C)CSC1 (centres unmarked) [A47] | – | ≥ 80% |
| CC1(NC(=O)c2cccc3c(C4=NOC(c5cc(Cl)cc(Cl)c5)(C(F)(F)F)C4)cccc23)CSC1 (centres unmarked) [A36] | little or no effect | – |
| Cc1cc(C2=NOC(c3cc(Cl)cc(Cl)c3)(C(F)(F)F)C2Cl)ccc1C(=O)NC1(C)CSC1 (centres unmarked) [A33] | – | ≥ 80% |
| Cc1cc(C2=NN(C)C(c3cc(Cl)cc(Cl)c3)(C(F)(F)F)C2)ccc1C(=O)NC1(C)CSC1 (centres unmarked) [A12] | – | ≥ 80% |
| Cc1cc(C2CC(c3cc(Cl)cc(Cl)c3)(C(F)(F)F)ON2C)ccc1C(=O)NC1CSC1 (centres unmarked) [A21] | – | ≥ 80% |
| O=C(NC1CSC1)c1ccc(C2=NOC(c3cc(Cl)cc(Cl)c3)(C(F)(F)F)C2)c2ccccc12 (centres unmarked) [A2] | – | ≥ 80% |
| Cc1cc(C2=NOC(c3cc(Cl)cc(Cl)c3)(C(F)(F)F)C2F)ccc1C(=O)NC1C[S+]([O-])C1 (centres unmarked) [A62] | – | ≥ 80% |
| Cc1cc(C2=NCC(c3cc(Cl)cc(Cl)c3)(C(F)(F)F)C2)ccc1C(=O)NC1C[S+]([O-])C1 (centres unmarked) [A48] | – | ≥ 80% |
| CC1(NC(=O)c2ccc(C3=NOC(c4cc(Cl)cc(Cl)c4)(C(F)(F)F)C3Br)c3ccccc23)CSC1 (centres unmarked) [A43] | – | ≥ 80% |
| Cc1cc(C2=NOC(c3cc(Cl)cc(Cl)c3)(C(F)(F)F)C2Br)ccc1C(=O)NC1CSC1 (centres unmarked) [A6] | – | ≥ 80% |
| Cc1cc(C2=NOC(c3cc(Cl)cc(Cl)c3)(C(F)(F)F)C2F)ccc1C(=O)NC1(C)CSC1 (centres unmarked) [A60] | – | ≥ 80% |
| Cc1cc(C2=NOC(c3cc(Cl)cc(Cl)c3)(C(F)(F)F)C2Cl)ccc1C(=O)NC1CS(=O)(=O)C1 (centres unmarked) [A32] | – | ≥ 80% |
| Cc1cc(C2=NOC(c3cc(Cl)cc(Cl)c3)(C(F)(F)F)O2)ccc1C(=O)NC1CSC1 (centres unmarked) [A17] | – | ≥ 80% |
| Cc1cc(C2=NN(C)C(c3cc(Cl)cc(Cl)c3)(C(F)(F)F)C2)ccc1C(=O)NC1C[S+]([O-])C1 (centres unmarked) [A13] | – | ≥ 80% |
| Cc1cc(C2=NOC(c3cc(Cl)cc(Cl)c3)(C(F)(F)F)C2F)ccc1C(=O)NC1CS(=O)(=O)C1 (centres unmarked) [A59] | – | ≥ 80% |
| Cc1cc(C2=NOC(c3cc(Cl)cc(Cl)c3)(C(F)(F)F)C2O)ccc1C(=O)NC1CSC1 (centres unmarked) [A54] | – | ≥ 80% |
